Assay results as given in patent publication US12187742B2 (XRAD Therapeutics, Inc., priority 2018, dated 2025).
Where a name gives a salt, the structure may show the parent alone.

Biological target: ATM (Homo sapiens (Human), UniProt Q13315)
Test: ATM in Cell Western Assay (pKAP1 in etoposide-treated MCF-7 cells)
Type: cell-based
Conditions: pKAP1 in etoposide-treated MCF-7 cells
Procedure, shortened: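 Cells received compounds in a 10-dose, 3-fold series from a 1 μM final top concentration, then 100 μM etoposide, for 1 hr at 37° C. They were then fixed with paraformaldehyde and permeabilized with 0.1% Triton X-100. After immunostaining, plates were scanned on an infrared imager.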

Chain of ATM (Q13315 whole entry): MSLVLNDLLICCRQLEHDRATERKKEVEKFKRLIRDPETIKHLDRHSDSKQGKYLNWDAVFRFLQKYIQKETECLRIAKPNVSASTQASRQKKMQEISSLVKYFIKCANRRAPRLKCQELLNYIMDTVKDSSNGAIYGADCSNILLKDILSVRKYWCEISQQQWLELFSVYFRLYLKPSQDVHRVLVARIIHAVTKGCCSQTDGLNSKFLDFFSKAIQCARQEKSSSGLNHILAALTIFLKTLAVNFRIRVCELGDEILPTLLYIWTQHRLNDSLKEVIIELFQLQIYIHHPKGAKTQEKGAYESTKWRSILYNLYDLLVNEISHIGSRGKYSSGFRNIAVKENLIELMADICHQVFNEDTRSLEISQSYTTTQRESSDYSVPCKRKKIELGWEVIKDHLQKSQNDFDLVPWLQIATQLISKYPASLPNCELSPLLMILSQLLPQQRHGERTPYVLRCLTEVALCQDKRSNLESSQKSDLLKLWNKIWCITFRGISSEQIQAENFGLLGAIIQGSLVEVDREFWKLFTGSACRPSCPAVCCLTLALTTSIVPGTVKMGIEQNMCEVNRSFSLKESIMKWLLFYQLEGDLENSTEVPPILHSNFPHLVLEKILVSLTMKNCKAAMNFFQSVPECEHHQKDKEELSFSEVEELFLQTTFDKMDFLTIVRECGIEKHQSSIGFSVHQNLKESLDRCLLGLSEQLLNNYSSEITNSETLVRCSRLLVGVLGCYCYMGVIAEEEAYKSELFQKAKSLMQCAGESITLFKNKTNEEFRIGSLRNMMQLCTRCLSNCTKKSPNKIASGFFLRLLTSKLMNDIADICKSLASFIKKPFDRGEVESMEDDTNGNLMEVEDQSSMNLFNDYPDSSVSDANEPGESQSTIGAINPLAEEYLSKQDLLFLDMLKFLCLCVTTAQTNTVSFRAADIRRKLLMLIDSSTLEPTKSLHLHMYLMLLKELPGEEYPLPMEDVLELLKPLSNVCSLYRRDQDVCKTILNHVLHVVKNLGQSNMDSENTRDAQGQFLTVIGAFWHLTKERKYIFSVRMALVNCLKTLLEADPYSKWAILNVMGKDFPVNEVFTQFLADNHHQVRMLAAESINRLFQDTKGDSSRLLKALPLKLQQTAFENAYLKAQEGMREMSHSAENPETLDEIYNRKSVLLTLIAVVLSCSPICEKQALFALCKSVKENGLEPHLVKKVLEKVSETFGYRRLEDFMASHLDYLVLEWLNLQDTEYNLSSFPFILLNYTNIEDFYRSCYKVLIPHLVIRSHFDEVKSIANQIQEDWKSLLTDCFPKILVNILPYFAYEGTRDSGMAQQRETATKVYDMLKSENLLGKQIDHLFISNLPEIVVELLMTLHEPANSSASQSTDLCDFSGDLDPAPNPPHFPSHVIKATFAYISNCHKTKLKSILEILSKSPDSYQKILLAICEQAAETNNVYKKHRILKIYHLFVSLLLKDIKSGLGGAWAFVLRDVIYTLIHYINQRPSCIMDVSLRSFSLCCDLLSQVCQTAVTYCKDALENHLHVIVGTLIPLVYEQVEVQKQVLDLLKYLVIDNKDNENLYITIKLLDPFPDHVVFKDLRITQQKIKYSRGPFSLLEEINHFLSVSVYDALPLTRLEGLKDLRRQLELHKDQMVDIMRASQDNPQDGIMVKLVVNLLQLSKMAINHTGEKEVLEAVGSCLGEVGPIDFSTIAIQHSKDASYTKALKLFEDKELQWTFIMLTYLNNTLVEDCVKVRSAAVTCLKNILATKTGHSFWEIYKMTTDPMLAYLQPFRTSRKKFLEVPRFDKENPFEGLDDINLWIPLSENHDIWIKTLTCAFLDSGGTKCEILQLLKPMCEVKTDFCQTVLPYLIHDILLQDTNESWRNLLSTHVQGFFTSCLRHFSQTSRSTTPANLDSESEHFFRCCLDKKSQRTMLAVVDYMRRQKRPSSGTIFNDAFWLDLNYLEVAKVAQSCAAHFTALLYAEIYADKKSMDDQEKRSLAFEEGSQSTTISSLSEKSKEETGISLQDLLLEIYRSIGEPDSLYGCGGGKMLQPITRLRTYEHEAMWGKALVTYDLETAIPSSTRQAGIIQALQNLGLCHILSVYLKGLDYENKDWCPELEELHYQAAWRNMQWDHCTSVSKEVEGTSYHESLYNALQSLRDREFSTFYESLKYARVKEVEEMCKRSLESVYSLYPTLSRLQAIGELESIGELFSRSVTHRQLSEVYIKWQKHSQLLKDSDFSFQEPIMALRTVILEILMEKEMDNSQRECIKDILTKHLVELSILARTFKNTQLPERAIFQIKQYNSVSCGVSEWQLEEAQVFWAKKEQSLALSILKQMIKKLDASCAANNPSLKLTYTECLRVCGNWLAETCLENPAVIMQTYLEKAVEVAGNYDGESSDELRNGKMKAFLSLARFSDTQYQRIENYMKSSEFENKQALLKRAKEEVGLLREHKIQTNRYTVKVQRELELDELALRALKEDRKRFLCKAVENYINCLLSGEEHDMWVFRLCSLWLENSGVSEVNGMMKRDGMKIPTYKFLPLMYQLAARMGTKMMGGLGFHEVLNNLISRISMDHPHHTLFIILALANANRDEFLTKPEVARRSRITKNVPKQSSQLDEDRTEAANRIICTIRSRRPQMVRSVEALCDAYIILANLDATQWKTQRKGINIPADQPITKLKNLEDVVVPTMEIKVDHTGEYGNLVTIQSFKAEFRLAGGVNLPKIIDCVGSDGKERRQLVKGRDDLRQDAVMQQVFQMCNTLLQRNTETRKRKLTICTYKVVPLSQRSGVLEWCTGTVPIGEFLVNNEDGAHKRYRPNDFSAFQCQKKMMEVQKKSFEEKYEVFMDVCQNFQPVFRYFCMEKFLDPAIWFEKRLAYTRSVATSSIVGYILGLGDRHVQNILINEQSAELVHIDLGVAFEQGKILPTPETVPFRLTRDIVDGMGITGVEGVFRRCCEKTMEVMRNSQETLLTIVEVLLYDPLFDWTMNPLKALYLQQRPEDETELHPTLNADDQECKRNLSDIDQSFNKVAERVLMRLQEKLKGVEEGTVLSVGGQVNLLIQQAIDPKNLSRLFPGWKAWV

| IC50 [nM] | SMILES |
| --- | --- |
| 1 to 100 | CC(C)NCCOc1ncc(-c2cc3c(cc2F)ncc2c3[C@]3(C[C@@H](C(C)(C)O)C3)C(=O)N2C)cc1NS(C)(=O)=O [Example 457, trans-N-(5-(7′-Fluoro-3-(2-bydroxypropan-2-yl)-3′-methyl-2′-oxo-2′,3′-dihydrospiro[cyclobutane-1,1′-pyrrolo[2,3-c]quinolin]-8′-yl)-2-(2-(isopropylamino)ethoxy)pyridin-3-yl)methanesulfonamide] |
| > 100 | CC(C)NCCOc1ncc(-c2cc3c4c(cnc3cc2F)N(C)C(=O)C42CC3(CCNCC3)C2)cc1NS(C)(=O)=O [Example 458, N-(5-(7′--Fluoro-3″-methyl-2″-oxo-2″,3″-dihydrodispiro [piperidine-4,1′-cyclobutane-31″-pyrrolo[2,3-c]quinolin]-8″-yl)-2-(2-(isopropylamino)ethoxy)pyridin-3-yl) methanesulfonamide] |
| 1 to 100 | CC(C)NCCOc1ncc(-c2cc3c(cc2F)ncc2c3[C@]3(C[C@@H](Nc4ccc(Cl)cc4)C3)C(=O)N2C)cc1NS(C)(=O)=O [Example 462, trans-N-(5-(3-((4-Chlorophenyl)amino)-7′-fluoro-3′-methyl-2′-oxo-2′,3′-dihydrospiro[cyclobutane-1,1′-pyrrolo[2,3-c]quinolin]-8′-yl)-2-(2-(isopropylamino)ethoxy)pyridin-3-yl)methanesulfonamide] |
| > 100 | CC(C)NCCOc1ncc(-c2cc3c(cc2F)ncc2c3[C@]3(C[C@@H](N(C)c4ccccc4)C3)C(=O)N2C)cc1NS(C)(=O)=O [Example 464, trans-N-{5-(7′-Fluoro-3′-methyl-3-(methyl(phenyl)amino)-2′-oxo-2′,3′-dihydrospiro[cyclobutane-1,1′-pyrrolo[2,3-c]quinolin]-8′-yl)-2-(2-(isopropylamino)ethoxy)pyridin-3-yl)methanesulfonamide] |
| 1 to 100 | CC(C)NCCOc1ncc(-c2cc3c(cc2F)ncc2c3[C@]3(C[C@H](N(C)C)C3)C(=O)N2C)cc1NS(C)(=O)=O [Example 465, cis-N-(5-(3-(Dimethylamino)-7′-fluoro-3′-methyl-2′-oxo-2′,3′-dihydrospiro[cyclobutane-1,1′-pyrrolo[2,3-c]quinolin]-8′-yl)-2-(2-(isopropylamino)ethoxy)pyridin-3-yl)methanesulfonamide] |
| 1 to 100 | CC(C)NCCOc1ncc(-c2cc3c(cc2F)ncc2c3[C@]3(C[C@@H](N(C)C)C3)C(=O)N2C)cc1NS(C)(=O)=O [Example 466, trans-N-(5-{3-(Dimethylamino)-7′-fluoro-3′-methyl-2′-oxo-2′,3′-dihydrospiro[cyclobutane-1,1′-pyrrolo[2,3-c]quinolin]-8′-yl)-2-(2-(isopropylamino)ethoxy)pyridin-3-yl)methanesulfonamide] |
| 1 to 100 | CC(C)NCCOc1ncc(-c2cc3c(cc2F)ncc2c3[C@]3(C[C@H](N4CCCC4)C3)C(=O)N2C)cc1NS(C)(=O)=O [Example 467, cis-N-(5-(7′-Fluoro-3′-methyl-2′-oxo-3-(pyrrolidin-1-yl)-2′,3′-dihydrospiro[cyclobutane-1,1′-pyrrolo[2,3-c]quinolin]-8′-yl)-2-(2-(isopropylamino)ethoxy)pyridin-3-yl)methanesulfonamide] |
| 1 to 100 | CC(C)NCCOc1ncc(-c2cc3c(cc2F)ncc2c3[C@]3(C[C@@H](N4CCCC4)C3)C(=O)N2C)cc1NS(C)(=O)=O [Example 468, trans-N-(5-(7′-Fluoro-3′-methyl-2′-oxo-3-(pyrrolidin-1-yl)-2′,3′-dihydrospiro[cyclobutane-1,1′-pyrrolo[2,3-c]quinolin]-8′-yl)-2-(2-(isopropylamino)ethoxy)pyridin-3-yl)methanesulfonamide] |
| 1 to 100 | CC(C)NCCOc1ncc(-c2cc3c(cc2F)ncc2c3[C@]3(C[C@H](N4CCCCC4)C3)C(=O)N2C)cc1NS(C)(=O)=O [Example 469, cis-N-(5-(7′-Fluoro-3′-methyl-2′-oxo-3-(piperidin-1-yl)-2′,3′-dihydrospiro[cyclobutane-1,1′-pyrrolo[2,3-c]quinolin]-8′-yl)-2-(2-(isopropylamino)ethoxy)pyridin-3-yl)methanesulfonamide] |
| 1 to 100 | CC(C)NCCOc1ncc(-c2cc3c(cc2F)ncc2c3[C@]3(C[C@@H](N4CCCCC4)C3)C(=O)N2C)cc1NS(C)(=O)=O [Example 470, trans-N-{5-(7′-Fluoro-3′-methyl-2′-oxo-3-(piperidin-1-yl)-2′,3′-dihydrospiro[cyclobutane-1,1′-pyrrolo[2,3-c]quinolin]-8′-yl)-2-(2-(isopropylamino)ethoxy)pyridin-3-yl)methanesulfonamide hydrochloride] |
| 1 to 100 | CC(C)NCCOc1ncc(-c2cc3c(cc2F)ncc2c3[C@]3(C[C@H](N4CCOCC4)C3)C(=O)N2C)cc1NS(C)(=O)=O [Example 471, cis-N-(5-(7′-Fluoro-3′-methyl-3-morpholino-2-oxo-2′,3′-dihydrospiro[cyclobutane-1,1′-pyrrolo[2,3-c]quinolin]-8′-yl)-2-(2-(isopropylamino)ethoxy)pyridin-3-yl)methanesulfonamide] |
| > 100 | CC(C)NCCOc1ncc(-c2cc3c(cc2F)ncc2c3[C@]3(C[C@@H](N4CCOCC4)C3)C(=O)N2C)cc1NS(C)(=O)=O [Example 472, trans-N-(5-(7′-Fluoro-3′-methyl-3-morpholino-2′-oxo-2′,3′-dihydrospiro[cyclobutane-1,1′-pyrrolo[2,3-c]quinolin]-8′-yl)-2-(2-(isopropylamino)ethoxy)pyridin-3-yl)methanesulfonamide] |
| 1 to 100 | CN[C@H]1C[C@@]2(C1)C(=O)N(C)c1cnc3cc(F)c(-c4cnc(OCCNC(C)C)c(NS(C)(=O)=O)c4)cc3c12 [Example 473, trans-N-(5-(7′-Fluoro-3′-methyl-3-(methylamino)-2′-oxo-2′,3′-dihydrospiro[cyclobutane-1,1′-pyrrolo[2,3-c]quinolin]-8′-yl)-2-(2-(isopropylamino)ethoxy)pyridin-3-yl)methanesulfonamide] |
| 1 to 100 | COCCN[C@H]1C[C@@]2(C1)C(=O)N(C)c1cnc3cc(F)c(-c4cnc(OCCNC(C)C)c(NS(C)(=O)=O)c4)cc3c12 [Example 474, trans-N-{5-(7′-Fluoro-3-((2-methoxyethyl)amino)-3′-methyl-2′-oxo-2′,3′-dihydrospiro[cyclobutane-1,1′-pyrrolo[2,3-c]quinolin]-8′-yl)-2-(2-(isopropylamino)ethoxy)pyridin-3-yl)methanesulfonamide] |
| > 100 | CC(C)NCCOc1ncc(-c2cc3c(cc2F)ncc2c3[C@]3(C[C@H](n4ccccc4=O)C3)C(=O)N2C)cc1NS(C)(=O)=O [Example 475, cis-N-(5-(7′-Fluoro-3′-methyl-2′-oxo-3-(2-oxopyridin-1(2H)-yl)-2′,3′-dihydrospiro[cyclobutane-1,1′-pyrrolo[2,3-c]quinolin]-8′-yl)-2-(2-(isopropylamino)ethoxy)pyridin-3-yl)methanesulfonamide] |
| > 100 | CC(C)NCCOc1ncc(-c2cc3c(cc2F)ncc2c3[C@]3(C[C@H](n4cccn4)C3)C(=O)N2C)cc1NS(C)(=O)=O [Example 476, cis-N-(5-(7′-Fluoro-3′-methyl-2′-oxo-3-(1H-pyrazol-1-yl)-2′,3′-dihydrospiro[cyclobutane-1,1′-pyrrolo[2,3-c]quinolin]-8′-yl)-2-(2-(isopropylamino)ethoxy)pyridin-3-yl)methanesulfonamide] |
| 1 to 100 | CN(C)CCCOc1ncc(-c2ccc3ncc4c(c3c2)C2(CN(C(=O)OC(C)(C)C)C2)C(=O)N4C)cc1NS(C)(=O)=O [Example 479, tert-Butyl 8′-(6-(3-(dimethylamino)propoxy)-5-(methylsulfonamido)pyridin-3-yl)-3′-methyl-2′-oxo-2′,3′-dihydrospiro[azetidine-3,1′-pyrrolo[2,3-c]quinoline]-1-carboxylate] |
| 1 to 100 | CN1C(=O)C2(CN(CC(F)(F)F)C2)c2c1cnc1ccc(-c3cnc(N4CC(N(C)C)C4)c(NS(C)(=O)=O)c3)cc21 [Example 480] |
| 1 to 100 | CC(C)NCCOc1ncc(-c2cc3c4c(cnc3cc2F)N(C)C(=O)C42CN(C)C2)cc1NS(C)(=O)=O [Example 481, N-(5-(7′-Fluoro-1,3′-dimethyl-2′-oxo-2′,3′-dihydrospiro[azetidine-3,1′-pyrrolo[2,3-c]quinolin]-8′-yl)-2-(2-(isopropylamino)ethoxy)pyridin-3-yl)methanesulfonamide hydrochloride] |
| 1 to 100 | CCN1CC2(C1)C(=O)N(C)c1cnc3cc(F)c(-c4cnc(OCCNC(C)C)c(NS(C)(=O)=O)c4)cc3c12 [Example 482, N-(5-(1-Ethyl-7-fluoro-3′-methyl-2′-oxo-2′,3′-dihydrospiro[azetidine-3,1′-pyrrolo[2,3-c]quinolin]-8′-yl)-2-(2-(isopropylamino)ethoxy)pyridin-3-yl)methanesulfonamide] |
| 1 to 100 | CCC(C)N1CC2(C1)C(=O)N(C)c1cnc3cc(F)c(-c4cnc(OCCNC(C)C)c(NS(C)(=O)=O)c4)cc3c12 (centres unmarked) [Example 487, N-(5-(1-(sec-Butyl)-7′-fluoro-3′-methyl-2′-oxo-2′,3′-dihydrospiro[azetidine-3,1′-pyrrolo[2,3-c]quinolin]-8′-yl)-2-(2-(isopropylamino)ethoxy)pyridin-3-yl)methanesulfonamide] |
| 1 to 100 | CCCN1CC2(C1)C(=O)N(C)c1cnc3cc(F)c(-c4cnc(OCCNC(C)C)c(NS(C)(=O)=O)c4)cc3c12 [Example 488, N-(5-(7′-Fluoro-3′-methyl-2′-oxo-1-propyl-2′,3′-dihydrospiro[azetidine-3,1′-pyrrolo[2,3-c]quinolin]-8′-yl)-2-(2-(isopropylamino)ethoxy)pyridin-3-yl)methanesulfonamide] |
| 1 to 100 | CCCCN1CC2(C1)C(=O)N(C)c1cnc3cc(F)c(-c4cnc(OCCNC(C)C)c(NS(C)(=O)=O)c4)cc3c12 [Example 489, N-(5-(1-butyl-7′-fluoro-3′-methyl-2′-oxo-2′,3′-dihydrospiro[azetidine-3,1′-pyrrolo[2,3-c]quinolin]-8′-yl)-2-(2-(isopropylamino)ethoxy)pyridin-3-yl)methanesulfonamide] |
